Assay results from paper PMC8330742, “New benzothieno[2,3-c]pyridines as non-steroidal CYP17 inhibitors: design, synthesis, anticancer screening, apoptosis induction, and in silico ADME profile studies” (Journal of Enzyme Inhibition and Medicinal Chemistry, 2021).

Tests used:
[1] = tested on: CCRF-CEM; experiment: NCI-60 SRB screen; type: cell-based; conditions: Homo sapiens, single dose 10^−5 M, read-out: Growth inhibition (%)
[2] = tested on: HL-60(TB); experiment: NCI-60 SRB screen; type: cell-based, human; conditions: Homo sapiens; HL-60 (TB); single dose 10^−5 M; read-out: Growth inhibition (%)
[3] = tested on: K-562; experiment: NCI-60 SRB screen; type: cell-based, human; conditions: Homo sapiens, K562; K-562; single dose 10^−5 M; read-out: Growth inhibition (%)
[4] = tested on: MOLT-4; experiment: NCI-60 SRB screen; type: cell-based; conditions: Homo sapiens; MOLT-4; single dose 10^−5 M; read-out: Growth inhibition (%)
[5] = tested on: SR; experiment: NCI-60 SRB screen; type: cell-based; conditions: Homo sapiens, single dose 10^−5 M, read-out: Growth inhibition (%)
[6] = tested on: A549/ATCC; experiment: NCI-60 SRB screen; type: cell-based, human; conditions: Homo sapiens, single dose 10^−5 M, read-out: Growth inhibition (%)
[7] = tested on: EKVX; experiment: NCI-60 SRB screen; type: cell-based, human; conditions: Homo sapiens, single dose 10^−5 M, read-out: Growth inhibition (%)
[8] = tested on: HOP-62; experiment: NCI-60 SRB screen; type: cell-based, human; conditions: Homo sapiens; HOP-62; single dose 10^−5 M; read-out: Growth inhibition (%)
[9] = tested on: HOP-92; experiment: NCI-60 SRB screen; type: cell-based, human; conditions: Homo sapiens; HOP-92; single dose 10^−5 M; read-out: Growth inhibition (%)
[10] = tested on: NCI-H226; experiment: NCI-60 SRB screen; type: cell-based, human; conditions: Homo sapiens; NCI-H226; single dose 10^−5 M; read-out: Growth inhibition (%)
[11] = tested on: NCI-H23; experiment: NCI-60 SRB screen; type: cell-based, human; conditions: Homo sapiens; NCI-H23; single dose 10^−5 M; read-out: Growth inhibition (%)
[12] = tested on: NCI-H322M; experiment: NCI-60 SRB screen; type: cell-based, human; conditions: Homo sapiens, single dose 10^−5 M, read-out: Growth inhibition (%)
[13] = tested on: NCI-H460; experiment: NCI-60 SRB screen; type: cell-based, human; conditions: Homo sapiens; NCI-H460; single dose 10^−5 M; read-out: Growth inhibition (%)
[14] = tested on: NCI-H522; experiment: NCI-60 SRB screen; type: cell-based, human; conditions: Homo sapiens; NCI-H522; single dose 10^−5 M; read-out: Growth inhibition (%)
[15] = tested on: COLO 205; experiment: NCI-60 SRB screen; type: cell-based, human; conditions: Homo sapiens; COLO 205; single dose 10^−5 M; read-out: Growth inhibition (%)
[16] = tested on: HCC-2998; experiment: NCI-60 SRB screen; type: cell-based, human; conditions: Homo sapiens; HCC-2998; single dose 10^−5 M; read-out: Growth inhibition (%)
[17] = tested on: HCT-116; experiment: NCI-60 SRB screen; type: cell-based, human; conditions: Homo sapiens; HCT-116; single dose 10^−5 M; read-out: Growth inhibition (%)
[18] = tested on: HCT-15; experiment: NCI-60 SRB screen; type: cell-based, human; conditions: Homo sapiens; HCT-15; single dose 10^−5 M; read-out: Growth inhibition (%)
[19] = tested on: KM12; experiment: NCI-60 SRB screen; type: cell-based, human; conditions: Homo sapiens; KM12; single dose 10^−5 M; read-out: Growth inhibition (%)
[20] = tested on: SW-620; experiment: NCI-60 SRB screen; type: cell-based; conditions: Homo sapiens; SW-620; single dose 10^−5 M; read-out: Growth inhibition (%)
[21] = tested on: SF-268; experiment: NCI-60 SRB screen; type: cell-based, human; conditions: Homo sapiens; SF-268; single dose 10^−5 M; read-out: Growth inhibition (%)
[22] = tested on: SF-295; experiment: NCI-60 SRB screen; type: cell-based, human; conditions: Homo sapiens; SF-295; single dose 10^−5 M; read-out: Growth inhibition (%)
[23] = tested on: LOX IMVI; experiment: NCI-60 SRB screen; type: cell-based, human; conditions: Homo sapiens, single dose 10^−5 M, read-out: Growth inhibition (%)
[24] = tested on: M14; experiment: NCI-60 SRB screen; type: cell-based, human; conditions: Homo sapiens; M14; single dose 10^−5 M; read-out: Growth inhibition (%)
[25] = tested on: MDA-MB-435; experiment: NCI-60 SRB screen; type: cell-based; conditions: Homo sapiens, MDA-MB-435, read-out: Growth inhibition (%)
[26] = tested on: SK-MEL-2; experiment: NCI-60 SRB screen; type: cell-based, human; conditions: Homo sapiens; SK-MEL-2; single dose 10^−5 M; read-out: Growth inhibition (%)
[27] = tested on: SK-MEL-28; experiment: NCI-60 SRB screen; type: cell-based; conditions: Homo sapiens; SK-MEL-28; single dose 10^−5 M; read-out: Growth inhibition (%)
[28] = tested on: SK-MEL-5; experiment: NCI-60 SRB screen; type: cell-based, human; conditions: Homo sapiens; SK-MEL-5; single dose 10^−5 M; read-out: Growth inhibition (%)
[29] = tested on: UACC-257; experiment: NCI-60 SRB screen; type: cell-based, human; conditions: Homo sapiens, UACC-257; UACC-275 (so in the source); single dose 10^−5 M; read-out: Growth inhibition (%)
[30] = tested on: UACC-62; experiment: NCI-60 SRB screen; type: cell-based, human; conditions: Homo sapiens; UACC-62; single dose 10^−5 M; read-out: Growth inhibition (%)
[31] = tested on: IGROV1; experiment: NCI-60 SRB screen; type: cell-based, human; conditions: Homo sapiens, IGROV-1; IGROV1; single dose 10^−5 M; read-out: Growth inhibition (%)
[32] = tested on: OVCAR-3; experiment: NCI-60 SRB screen; type: cell-based, human; conditions: Homo sapiens; OVCAR-3; single dose 10^−5 M; read-out: Growth inhibition (%)
[33] = tested on: OVCAR-4; experiment: NCI-60 SRB screen; type: cell-based, human; conditions: Homo sapiens; OVCAR-4; single dose 10^−5 M; read-out: Growth inhibition (%)
[34] = tested on: OVCAR-8; experiment: NCI-60 SRB screen; type: cell-based, human; conditions: Homo sapiens; OVCAR-8; single dose 10^−5 M; read-out: Growth inhibition (%)
[35] = tested on: NCI/ADR-RES; experiment: NCI-60 SRB screen; type: cell-based, human; conditions: Homo sapiens, single dose 10^−5 M, read-out: Growth inhibition (%)
[36] = tested on: SK-OV-3; experiment: NCI-60 SRB screen; type: cell-based, human; conditions: Homo sapiens; SK-OV-3; single dose 10^−5 M; read-out: Growth inhibition (%)
[37] = tested on: 786-0; experiment: NCI-60 SRB screen; type: cell-based; conditions: Homo sapiens; 786-0; single dose 10^−5 M; read-out: Growth inhibition (%)
[38] = tested on: ACHN; experiment: NCI-60 SRB screen; type: cell-based; conditions: Homo sapiens, single dose 10^−5 M, read-out: Growth inhibition (%)
[39] = tested on: CAKI-1; experiment: NCI-60 SRB screen; type: cell-based, human; conditions: Homo sapiens; CAKI-1; single dose 10^−5 M; read-out: Growth inhibition (%)
[40] = tested on: RXF 393; experiment: NCI-60 SRB screen; type: cell-based, human; conditions: Homo sapiens; RXF 393; single dose 10^−5 M; read-out: Growth inhibition (%)
[41] = tested on: SN12C; experiment: NCI-60 SRB screen; type: cell-based, human; conditions: Homo sapiens, SN12C; SN 12 C; single dose 10^−5 M; read-out: Growth inhibition (%)
[42] = tested on: TK-10; experiment: NCI-60 SRB screen; type: cell-based, human; conditions: Homo sapiens; TK-10; single dose 10^−5 M; read-out: Growth inhibition (%)
[43] = tested on: UO-31; experiment: NCI-60 SRB screen; type: cell-based, human; conditions: Homo sapiens; UO-31; single dose 10^−5 M; read-out: Growth inhibition (%)
[44] = tested on: panel of 60 cancer cell lines; experiment: NCI-60 SRB screen, mean or range over the panel; type: cell-based, human; conditions: Homo sapiens; mean over the cell lines; single dose 10^−5 M; read-out: Mean growth inhibition (%)

For `O=C1C(=Cc2ccccc2[N+](=O)[O-])Sc2c(F)cccc21` [Compound 2c, 7-Fluoro-2-(2-nitrobenzylidene)[1]benzothiophen-3(2H)-one], the inhibition at 10 µM [1] was 26.3%, the inhibition at 10 µM [2] was 28.8% and the inhibition at 10 µM [3] was 67.8%. The inhibition at 10 µM [4] was 19.8%, the inhibition at 10 µM [5] was 37.2% and the inhibition at 10 µM [6] was 4.91%. It also gave an inhibition at 10 µM [7] of 15.6%, an inhibition at 10 µM [8] of 20.4% and an inhibition at 10 µM [9] of -11.4%. It also gave an inhibition at 10 µM [10] of 23.5%, an inhibition at 10 µM [11] of 13.3% and an inhibition at 10 µM [12] of 1.98%. For the same compound, the inhibition at 10 µM [13] was 59.2%, the inhibition at 10 µM [14] was 2.94% and the inhibition at 10 µM [15] was -6.61%. For the same compound, the inhibition at 10 µM [16] was -11.4%, the inhibition at 10 µM [17] was 80.5% and the inhibition at 10 µM [18] was -1.05%. It also gave an inhibition at 10 µM [19] of 3.27%, an inhibition at 10 µM [20] of 68.8% and an inhibition at 10 µM [21] of 5.43%. It also gave an inhibition at 10 µM [22] of 27%, an inhibition at 10 µM [23] of 11.1% and an inhibition at 10 µM [24] of -1.11%. The inhibition at 10 µM [25] was -12.1%, the inhibition at 10 µM [26] was -9.11% and the inhibition at 10 µM [27] was -4.83%. For the same compound, the inhibition at 10 µM [28] was 8.44%, the inhibition at 10 µM [29] was 78.8% and the inhibition at 10 µM [30] was 60.9%. For the same compound, the inhibition at 10 µM [31] was 66.5%, the inhibition at 10 µM [32] was 70.8% and the inhibition at 10 µM [33] was 40.5%. The inhibition at 10 µM [34] was 6.75%, the inhibition at 10 µM [35] was 13.5% and the inhibition at 10 µM [36] was 2.42%. It also gave an inhibition at 10 µM [37] of -11%, an inhibition at 10 µM [38] of 7.28% and an inhibition at 10 µM [39] of 85.1%. It also gave an inhibition at 10 µM [40] of -3.1%, an inhibition at 10 µM [41] of 7.57% and an inhibition at 10 µM [42] of -30.9%. It also gave an inhibition at 10 µM [43] of 29.9% and an inhibition at 10 µM [44] of 11.5%.
`COc1ccc(C2NC(=O)C(Cl)c3c2sc2c(F)cccc32)c(OC)c1` (stereo not shown) [Compound 4a, 4-Chloro-1-(2,4-Dimethoxyphenyl)-8-fluoro-1,2-dihydro[1]benzothieno [2,3-c]pyridine-3(4H)-one] gave an inhibition at 10 µM [1] of -1.02%, an inhibition at 10 µM [2] of 0.73% and an inhibition at 10 µM [3] of 12.5%. For the same compound, the inhibition at 10 µM [4] was 4.69%, the inhibition at 10 µM [5] was 36.6% and the inhibition at 10 µM [6] was -4.25%. For the same compound, the inhibition at 10 µM [7] was 2.22%, the inhibition at 10 µM [8] was 9.42% and the inhibition at 10 µM [9] was 9.64%. The inhibition at 10 µM [10] was 13.6%, the inhibition at 10 µM [11] was 1.72% and the inhibition at 10 µM [12] was -4.72%. It also gave an inhibition at 10 µM [13] of -1.09%, an inhibition at 10 µM [14] of 8.58% and an inhibition at 10 µM [15] of -16.7%. It also gave an inhibition at 10 µM [16] of -7.97%, an inhibition at 10 µM [17] of -2.4% and an inhibition at 10 µM [18] of -9.27%. The inhibition at 10 µM [19] was 3.86%, the inhibition at 10 µM [20] was -0.16% and the inhibition at 10 µM [21] was 9.64%. It also gave an inhibition at 10 µM [22] of -2.33%, an inhibition at 10 µM [23] of 4.84% and an inhibition at 10 µM [24] of 3.25%. For the same compound, the inhibition at 10 µM [25] was 8.55%, the inhibition at 10 µM [26] was -23.2% and the inhibition at 10 µM [27] was -1.74%. For the same compound, the inhibition at 10 µM [28] was -1.74%, the inhibition at 10 µM [29] was -12.8% and the inhibition at 10 µM [30] was 10.9%. For the same compound, the inhibition at 10 µM [31] was 10.3%, the inhibition at 10 µM [32] was 1.99% and the inhibition at 10 µM [33] was -1.63%. The inhibition at 10 µM [34] was -0.71%, the inhibition at 10 µM [35] was -5.94% and the inhibition at 10 µM [36] was 0.53%. It also gave an inhibition at 10 µM [37] of 4.93%, an inhibition at 10 µM [38] of 12.4% and an inhibition at 10 µM [39] of 27.5%. For the same compound, the inhibition at 10 µM [40] was -0.71%, the inhibition at 10 µM [41] was 9.45% and the inhibition at 10 µM [42] was -25.5%. The inhibition at 10 µM [43] was 40.3% and the inhibition at 10 µM [44] was 1.85%.
